Experimental data as given in publication PMC12590632, “Identification and characterization of a nonpeptidic cyclophilin ligand with antiviral activity against feline and porcine α-coronaviruses” (Veterinary Research, 2025).

How the values were obtained:
[1] = test system: TGEV (Purdue strain) in PK15 cells; assay: TGEV infection in PK15 cells, immunofluorescence, infected area; type: cell-based, transmissible gastroenteritis virus; details: for Effect on TGEV infection: 12.5 µM
Protocol: (§1) CRFK, PK15 and Vero cells were plated in a 96-well plate at a density of 2 × 10^4 cells/well and incubated for 18 h at 37 °C. The cells were infected with FIPV (MOI of 1), TGEV (MOI of 0.5) or PEDV (MOI of 0.5). Viral inoculation was performed in the presence of F83233, F832 and F833 at concentrations ranging from 0.1 μM to 25 μM for FIPV assays and from 0.78 µM to 12.5 µM for TGEV and PEDV. Two hours after viral inoculation, fresh medium supplemented with the same concentrations of inhibitors was added. The antiviral effect was measured at the peak of viral replication, i.e., after 24 h for FIPV and PEDV infection and after 48 h for TGEV infection. The experiments were repeated twice, and each condition was tested in duplicate or triplicate in independent wells.
(§2) Fixed PK15 and Vero cells were processed similarly. TGEV infection was detected with a homemade anti-spike antibody (called 51.13 [46, 47], dilution 1/10 000) from a mouse and with an anti-mouse AlexaFluor-555-conjugated secondary antibody. PEDV infection was detected with polyclonal antibodies from pigs (a gift from Drs. Y. Blanchard and M. Contrant, Anses, Ploufragan, dilution 1/300) and with an anti-pig AlexaFluor-488-conjugated secondary antibody (SouthernBiotech, Birmingham, USA). […] (J2 from Cell Signaling Technology, Danvers, USA, dilution 1/1000), followed by incubation with an anti-mouse AlexaFluor-555-conjugated secondary antibody. The cells were counterstained with DAPI (Sigma‒Aldrich, final concentration of 1 µg/mL). Secondary antibodies (with the exception of the anti-pig at a 1/400 dilution) were used at a 1/800 dilution and were obtained from Molecular Probes (Thermo Fischer Scientific).
(§3) For each concentration of F832, F833 or F83233, 3 to 5 pictures were randomly taken with an epifluorescence microscope (Zeiss, Oberkochen, Germany) with a 10X objective. The area of staining was measured with ImageJ. The number of nuclei/syncytia (defined as PEDV-positive cells with > 4 nuclei) in PEDV-infected cells was manually counted using ImageJ. Blind analysis was performed to avoid bias.

Human cyclophilin A = target: T1, Human cyclophilin A (Homo sapiens, UniProt P62937); assay: PPIase enzyme assay (chymotrypsin-coupled); type: biochemical; details: 20 °C, mean ± SD of two or more experiments
T1 construct: made in house
T1 sequence (P62937 whole entry): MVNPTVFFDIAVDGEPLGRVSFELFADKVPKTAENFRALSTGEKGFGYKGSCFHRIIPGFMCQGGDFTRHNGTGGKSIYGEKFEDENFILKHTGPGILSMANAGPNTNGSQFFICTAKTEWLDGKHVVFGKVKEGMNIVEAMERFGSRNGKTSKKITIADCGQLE
Protocol: Human cyclophilin A was purified, and its PPIase activity in the absence or presence of SMCypI was measured as previously described. Briefly, cyclophilin A PPIase activity was measured at 20 °C using the standard chymotrypsin-coupled assay. The assay buffer (25 mM HEPES and 100 mM NaCl, pH 7.8) and purified cyclophilin A were precooled to 4 °C. Then, 5 µL of 50 mg/mL chymotrypsin in 1 mM HCl was added (final reaction volume of 500 µL). The reaction was initiated by adding the peptide substrate Suc-Ala-Ala-Cis-Pro-Phe-pNA to a LiCl/TFE solution with rapid inversion. The absorbance of p-nitroaniline was monitored at 390 nm until the reaction was complete, i.e., when the absorbance reached a plateau (1 min). The final concentration of LiCl in the assay was 20 mM, and TFE was present at a concentration of 4% (v/v). The absorbance was measured every second using a spectrophotometer (BioMate3, Thermo Fischer Scientific). For the inhibition assessment, 5 µL of the tested compound in dimethyl sulfoxide (DMSO) was added to the cyclophilin A solution in the assay buffer. CsA (Sigma‒Aldrich, Saint-Louis, USA) was used as a positive control for PPIase inhibition in all measurements. IC50 values were calculated from dose‒response curves and reported as the mean ± standard deviation of two or more experiments.

CRFK cells = assay: Cytotoxicity assay (CellTiter-Glo); type: cell-based, feline; details: 24 h, up to 25 µM
Protocol: The cells were plated in a 96-well plate at a density of 2 × 10^4 cells/well and incubated for 24 h. The culture medium was replaced with serial dilutions of culture medium containing three replicates of different concentrations (ranging from 0.9 μM to 25 μM) of F83233, F832 and F833 molecules, DMSO or media alone as controls. The plates were incubated for 24 h at 37 °C. Cytotoxicity was evaluated with the CellTiter-Glo Cell Viability Assay Kit (Promega, Madison, USA).

[2] = test system: FIPV (strain 79-1146) in CRFK cells; assay: FIPV viral titre in cell supernatants, dose response in CRFK cells; type: cell-based, feline infectious peritonitis virus; details: for Decrease of FIPV virus titre: 25 µM
Protocol: (§4) CRFK cells were plated in a 96-well plate at a density of 2 × 10^4 cells/well and incubated for 24 h. Serial tenfold dilutions (10^–1 to 10^–6) of viral supernatants, obtained with or without cyclophilin inhibitors, were added to CRFK cells in eight replicate wells per dilution. The viral inoculum was removed 2 h after infection, and the cells were incubated for 24 h at 37 °C. The cells were fixed via sequential incubation in absolute ethanol followed by 70% ethanol (10 min each at room temperature). FIPV antigens were then detected by immunofluorescence using ascitic fluid from an infected cat (dilution 1/500), followed by incubation with an anti-cat AlexaFluor-488-conjugated secondary antibody (Jackson ImmunoResearch, West Grove, USA). Wells containing fluorescent cells were counted. The 50% infectious dose (ID50) was calculated using the Spearman–Karber method. The results are presented as the means of ≥ 2 experiments performed in triplicate.
as §1

[3] = test system: PEDV (CV777 strain) in Vero cells; assay: PEDV infection in Vero cells, immunofluorescence, infected area; type: cell-based, porcine epidemic diarrhoea virus; details: for Antiviral potency against PEDV: MOI 0.5, 24 h, 0.78-12.5 µM
Protocol: as §1, §2, §3

[4] = test system: FIPV (strain 79-1146) in CRFK cells; assay: SMCypI screening for FIPV infection, viral titre by end-point dilution; type: cell-based, feline infectious peritonitis virus; details: 50 µM SMCypI, MOI 1, 24 h
Protocol: CRFK cells were plated in a 96-well plate at a density of 2 × 10^4 cells/well and incubated for 24 h. The cells were infected for 1 h with FIPV at a multiplicity of infection (MOI) of 1 in the presence of 50 µM or 10 µM SMCypI or CsA, respectively. The inoculum was removed after 1 h, and inhibitors (50 μM SMCypI or 10 μM CsA) were added for 24 supplemental hours. The supernatants were collected and stored at −80 °C prior to the end-point dilution assays.
as §4, with “The results are presented as the means of ≥ 2 experiments performed in triplicate.” left out

FIPV in CRFK cells = assay: Time-of-drug addition assay; type: cell-based, feline infectious peritonitis virus
Protocol: as §4
CRFK cells were plated in a 96-well plate at a density of 2 × 10^4 cells per well and incubated for 24 h. The cells were infected with FIPV at an MOI of 1 in the presence of 5 µM F83233 (for 0 h post-infection (pi)) or in the presence of DMSO (for the other time points). After viral inoculation, the culture medium was removed, fresh medium containing 5 μM F83233 was added at 1, 3, 6, 9 or 18 h post-infection, and infection was stopped at 24 h post-inoculation. The cell supernatants were stored at −80 °C prior to end-point dilution to measure the effect of F83233 on FIPV infectivity under different conditions. The experiment was repeated three times, and each condition was tested in triplicate.

[5] = test system: PEDV (CV777 strain) in Vero cells; assay: PEDV-induced syncytium formation and dsRNA staining in Vero cells; type: cell-based, porcine epidemic diarrhoea virus; details: 12.5 µM
Excerpt: as §2, §3

[6] = 5 µM F83233, FIPV MOI 1, CRFK cells

Compound	Effect on TGEV infection ([1]; MOI 0.5, 48 h)	IC50 (Human cyclophilin A) [nM]	Cytotoxicity (CRFK cells)	Decrease of FIPV virus titre ([2]; 24 h)	Antiviral potency against PEDV [3]	Inhibition of FIPV titre [4]	Effect on TGEV-infected cells ([1]; 6.25 µM and 12.5 µM, 48 h)	Concentration at which active against TGEV ([1]; MOI 0.5, 48 h) [µM]	Decrease of antiviral efficiency between addition at 1 and 3 h post-infection (FIPV in CRFK cells; [6])	Time of addition giving the maximal antiviral effect (FIPV in CRFK cells; [6])	Inhibition of FIPV titre compared with DMSO control (FIPV in CRFK cells; 5 µM F83233 added 18 h post-infection)	Reduction in FIPV viral titre ([2]; 5 µM, 24 h)	FIPV viral reduction ([2]; 10 µM)	Maximal inhibitory effect, decrease of FIPV titre ([2]; 12.5 µM, 24 h)	Double-strand RNA staining (viral genome replication) in syncytia [5]	Size of PEDV-induced syncytia and number of nuclei per syncytium [5]	Effect on PEDV infection ([3]; 3.125 µM, 24 h)
O=C(NCc1ccc2c(c1)CCCN2)NC(C(=O)N1CCCC1c1cccc2ccsc12)c1ccccc1 (stereo not shown) [Compound F832]	no significant effect	400 ± 90	low cytotoxicity	≈ 0.5 Log10	modest antiviral potency												
Nc1ccc(CNC(=O)NC(C(=O)N2CCCC2c2cccc3ccsc23)C2CCCCC2)cc1 (stereo not shown) [Compound F833]	no significant effect	600 ± 100	low cytotoxicity	≈ 0.5 Log10	modest antiviral potency												
O=C(NCc1ccc2c(c1)CCCN2)NC(C(=O)N1CCCC1c1cccc2ccsc12)C1CCCCC1 (stereo not shown) [Compound F83233]		700 ± 500	low cytotoxicity	≈ 3 Log10		more than 4 Log10	almost complete disappearance of infected cells	1.6	more than 1 Log10	simultaneously with the virus or 1 h later	≈ 1 Log10	approximately 2 Log10	approximately 3 Log10	3–4 Log10	markedly impacted	drastically decreased	important reduction in infection
